Columns and labels:
[1] = test system: ventilatory pattern generator of the locust, Locusta migratoria; test: Hyperthermic failure and recovery of locust ventilatory motor pattern; format: in vivo; details: for thermotolerance of neural function (failure temperature, FIG. 7A): 1 μM KT5823, 1 μM Cantharidin, 40 μM 8-Bromo cGMP
Method: To determine if the thermoprotective consequences of PKG manipulations also apply to central circuitry and motor pattern generation, the thermotolerance of the ventilatory pattern generator was measured (Robertson, R. M. 2004) of the locust, Locusta migratoria. […] Ventilatory arrhythmias (Arr) in untreated animals prior to hyperthermic failure are rarely seen in preparations treated with the PKG inhibitor (FIG. 4.). At failure, temperature was returned to room temperature and time to recovery recorded. Pretreated controls recover after 180.2±42.4 sec whereas KT5823-pretreated animals recover after 62.3±13.4 sec. […] Once ventilatory pattern failure occurs during a temperature ramp, heating was terminated and the motor pattern was monitored until recovery.
Male locusts aged 4-6 weeks were dissected and pinned on a cork board; overlying tissue was removed exposing the metathoracic ganglion. Standard locust saline was superfused and heated at a rate of 5° C./2 min. until motor pattern failure, after which saline was allowed to return to room temperature. Ventilatory motor patterns were monitored using an EMG electrode on muscle 161 in the second abdominal segment. Pressure injection (32±13.5 nL, 10 psi, 150 ms) into the ventilatory neuropil was with a glass microelectrode filled with either 1 μM KT5823 in standard locust saline or locust saline alone (sham treatment) 10 min. (pretreated) before, or during (acutely treated; ˜3 min. before failure in controls) the temperature ramp.
FIGS. 7 to 8 illustate hyperthermic failure of locust ventilatory motor pattern generation. FIG. 8 illustrates sample traces of the ventilatory rhythm recorded from an abdominal expiratory muscle in a control locust. The ventilatory arrhythmias prior to failure should be noted. At failure, temperature was allowed to return to room temperature and time to recovery was recorded. The ventilatory motor pattern after recovery is at a lower frequency than just prior to failure because the temperature is lower. […] Significant differences were found across all groups (ANOVA F(9,105)=13.160, p<0.001). […] Here too significant differences were found across all groups (ANOVA […], p<0.001) N>5 for all treatments. […] Error bars represent SEM.

[2] = test system: ventilatory pattern generator of the locust, Locusta migratoria; test: as above; format: in vivo
febrile seizures = details: intermittent treatment of febrile seizures; cited from earlier work

Nc1nc2c(nc(Br)n2[C@@H]2O[C@@H]3COP(=O)(O)O[C@H]3[C@H]2O)c(=O)[nH]1 [8-Bromo cGMP, 8-bromo-guanosine 3′,5′-cyclic monophosphate]
thermotolerance of neural function (failure temperature, FIG. 7A) [1]: did not increase the thermotolerance of the circuit | effect on protective effects of heat shock preconditioning ([1]; 40 μM, HS animals (3 hr at 45° C.)): abolished the protective effects of heat shock preconditioning

CC12C(=O)OC(=O)C1(C)C1CCC2O1 (stereo not shown) [Cantharidin, Hexahydro-3a,7a-dimethyl-4,7-epoxyisobenzofuran-1,3-dione]
thermotolerance in HS animals given 8-Bromo cGMP plus Cantharidin ([1]; 1 μM Cantharidin with 40 μM 8-Bromo cGMP, HS animals): counteracted the effect of 8-Bromo cGMP in HS animals thereby inducing maximal thermotolerance | thermotolerance of neural function (failure temperature, FIG. 7A) [1]: increased the thermotolerance of neural function

COC(=O)[C@@]1(OC)C[C@H]2O[C@]1(C)n1c3ccccc3c3c4c(c5c6ccccc6n2c5c31)C(=O)N(C)C4 [KT5823]
thermotolerance of neural function (failure temperature, FIG. 7A) [1]: increased the thermotolerance of neural function | acute effect of injection on ventilatory rhythm frequency, burst duration or duty cycle ([1]; 1 μM pressure injection, data not shown): no acute effect | preparations with arrhythmias before failure ([1]; during temperature ramp, controls 60%): 11% | thermal protection of the circuit, pretreated ([2]; 25 nL of 1 μM injected 10 minutes before increasing temperature): thermoprotection and rapid recovery of the circuit was observed | thermal protection of the circuit, acutely treated ([2]; one 25 nL dose injected during temperature ramp 3 min. before failure): extremely rapid and equally pronounced thermal protection of the circuit was observed | time to recovery of ventilatory motor pattern after failure ([2]; pretreated: 25 nL of 1 μM injected into ventilatory neuropil 10 min before temperature ramp, return to room temperature at failure): 62.3 ± 13.4 s

Nc1ncnc2c1ncn2[C@@H]1O[C@@H]2COP(O)(=S)O[C@H]2[C@H]1O (stereo partly shown) [RP-cAMP]
failure temperature compared with controls ([1]; PKA inhibitor, data not shown): no significant differences | recovery time compared with controls ([1]; PKA inhibitor, data not shown): no significant differences

CN1C(=O)CN=C(c2ccccc2)c2cc(Cl)ccc21 [diazepam]
reduction in risk per patient year (febrile seizures): 44%

From patent publication US7858579B2, “Thermoprotective compositions of pkg pathway inhibitors and method of use thereof” (priority 2005, dated 2010)
